Measurements reported in patent publication US10385019B2, “Inhibitors of EGFR and methods of use thereof” (Dana-Farber Cancer Institute, Inc., priority 2015, dated 2019).

Biological target: EGFR T790M/L858R Ba/F3 cell line (Homo sapiens, UniProt P00533, T790M/L858R, cells depend on it)
Test: Ba/F3 cell proliferation model
Assay type: cell-based, murine
Conditions: combined with cetuximab (% cetuximab, 1.0 μM drug concentration with 1.0 μg/mL cetuximab)
Summary of the method: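 Murine Ba/F3 cells made IL-3-independent by retroviral EGFR L858R/T790M, selected in puromycin (2 μg/ml) and kept in RPMI 1640 with 10% FBS. Cells were exposed to serially diluted compound for 72 h, with growth read by MTS assay in six wells per point and ≥3 repeats. Sigmoidal dose-response non-linear regression gave the values.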

Sequence of EGFR T790M/L858R Ba/F3 cell line (P00533 whole entry T790M/L858R): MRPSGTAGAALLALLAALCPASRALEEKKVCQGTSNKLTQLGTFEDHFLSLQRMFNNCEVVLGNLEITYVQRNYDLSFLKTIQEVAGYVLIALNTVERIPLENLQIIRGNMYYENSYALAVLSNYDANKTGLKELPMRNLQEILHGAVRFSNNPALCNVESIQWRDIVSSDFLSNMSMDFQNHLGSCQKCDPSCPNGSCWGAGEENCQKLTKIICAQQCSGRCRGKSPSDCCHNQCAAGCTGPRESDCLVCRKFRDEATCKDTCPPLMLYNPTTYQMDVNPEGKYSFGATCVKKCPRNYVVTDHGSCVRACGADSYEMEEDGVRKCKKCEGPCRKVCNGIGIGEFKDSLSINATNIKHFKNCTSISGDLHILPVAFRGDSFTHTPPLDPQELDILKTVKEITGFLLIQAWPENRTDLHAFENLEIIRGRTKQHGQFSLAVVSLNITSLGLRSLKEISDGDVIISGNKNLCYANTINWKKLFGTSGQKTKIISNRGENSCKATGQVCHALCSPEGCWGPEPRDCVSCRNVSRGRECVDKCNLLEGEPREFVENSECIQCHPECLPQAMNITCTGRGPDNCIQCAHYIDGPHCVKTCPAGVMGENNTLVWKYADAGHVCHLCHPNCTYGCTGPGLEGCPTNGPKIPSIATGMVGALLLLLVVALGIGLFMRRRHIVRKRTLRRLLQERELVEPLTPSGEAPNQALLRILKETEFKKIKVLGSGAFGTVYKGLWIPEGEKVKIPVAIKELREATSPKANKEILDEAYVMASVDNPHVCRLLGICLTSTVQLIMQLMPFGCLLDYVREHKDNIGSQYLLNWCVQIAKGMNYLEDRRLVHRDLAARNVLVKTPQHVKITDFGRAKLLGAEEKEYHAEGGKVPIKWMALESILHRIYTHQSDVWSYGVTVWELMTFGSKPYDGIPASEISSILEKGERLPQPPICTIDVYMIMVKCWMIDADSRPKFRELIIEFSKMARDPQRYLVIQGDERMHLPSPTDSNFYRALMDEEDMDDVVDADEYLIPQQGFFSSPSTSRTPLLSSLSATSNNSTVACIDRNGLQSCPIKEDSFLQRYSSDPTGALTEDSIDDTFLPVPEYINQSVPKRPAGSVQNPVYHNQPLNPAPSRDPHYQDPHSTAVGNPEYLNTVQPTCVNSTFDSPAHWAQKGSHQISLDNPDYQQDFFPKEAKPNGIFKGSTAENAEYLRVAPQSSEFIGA

Row | Compound | Activity (% inhibition)
1 | O=C(Nc1nccs1)[C@@H](c1cccc([N+](=O)[O-])c1)N1Cc2ccc(-c3ccc4[nH]ccc4c3)cc2C1=O [Compound I-109, (R)-2-(6-(1H-indol-5-yl)-1-oxoisoindolin-2-yl)-2-(3-nitrophenyl)-N-(thiazol-2-yl)acetamide] | B (a % inhibition of between about 50% to about 75%)
2 | COC(=O)c1cc(Br)ccc1N[C@H](C(=O)Nc1nccs1)c1ccccc1 [Compound I-107, methyl (S)-5-bromo-2-((2-oxo-1-phenyl-2-(thiazol-2-ylamino)ethyl)amino)benzoate] | B (a % inhibition of between about 50% to about 75%)
3 | O=C(Nc1nccs1)[C@@H](c1ccccc1)N1Cc2cc(-c3ccccc3)ccc2C1=O [Compound I-105, (R)-2-(1-oxo-5-phenylisoindolin-2-yl)-2-phenyl-N-(thiazol-2-yl)acetamide] | B (a % inhibition of between about 50% to about 75%)
4 | O=C(Nc1nccs1)[C@@H](c1ccccc1)N1Cc2cc(Nc3ccc(OCc4ccccc4)cc3)ccc2C1=O [Compound I-96, (R)-2-(5-((4-(benzyloxy)phenyl)amino)-1-oxoisoindolin-2-yl)-2-phenyl-N-(thiazol-2-yl)acetamide] | A (a % inhibition of about 75%)
5 | O=C(Nc1nncs1)[C@@H](c1ccccc1)N1Cc2ccc(-c3ccc4[nH]ccc4c3)cc2C1=O [Compound I-127, (R)-2-(6-(1H-indol-5-yl)-1-oxoisoindolin-2-yl)-2-phenyl-N-(1,3,4-thiadiazol-2-yl)acetamide] | A (a % inhibition of about 75%)
6 | O=C(Nc1nccs1)[C@@H](c1ccccc1)N1Cc2ccc(-c3cccc(C(=O)N4CCOCC4)c3)cc2C1=O [Compound I-92, (R)-2-(6-(3-(morpholine-4-carbonyl)phenyl)-1-oxoisoindolin-2-yl)-2-phenyl-N-(thiazol-2-yl)acetamide] | C (a % inhibition of between about 25% to about 50%)
7 | O=C(Nc1ncnc2[nH]ncc12)[C@@H](c1ccccc1)N1Cc2ccccc2C1=O [Compound I-33, (R)-2-(1-oxoisoindolin-2-yl)-2-phenyl-N-(1H-pyrazolo[3,4-d]pyrimidin-4-yl)acetamide] | A (a % inhibition of about 75%)
8 | O=C(Nc1nccs1)[C@@H](c1ccccc1)N1Cc2ccc(-c3cn[nH]c3)cc2C1=O [Compound I-64, (R)-2-(1-oxo-6-(1H-pyrazol-4-yl)isoindolin-2-yl)-2-phenyl-N-(thiazol-2-yl)acetamide] | B (a % inhibition of between about 50% to about 75%)
9 | Cc1cccc(C)c1NC(=O)[C@@H](c1ccccc1)N1Cc2ccccc2C1=O [Compound I-54, (R)-N-(2,6-dimethylphenyl)-2-(1-oxoisoindolin-2-yl)-2-phenylacetamide] | A (a % inhibition of about 75%)
10 | O=C(Nc1cnc(Br)cn1)[C@@H](c1ccccc1)N1Cc2ccccc2C1=O [Compound I-27, (R)-N-(5-bromopyrazin-2-yl)-2-(1-oxoisoindolin-2-yl)-2-phenylacetamide] | A (a % inhibition of about 75%)
11 | COC(=O)c1cc(Br)ccc1N[C@@H](C(=O)Nc1nccs1)c1ccccc1 [Compound I-106, methyl (R)-5-bromo-2-((2-oxo-1-phenyl-2-(thiazol-2-ylamino)ethyl)amino)benzoate] | B (a % inhibition of between about 50% to about 75%)
12 | Nc1cccc([C@@H](C(=O)Nc2nccs2)N2Cc3ccccc3C2=O)c1 [Compound I-13, (S)-2-(3-aminophenyl)-2-(1-oxoisoindolin-2-yl)-N-(thiazol-2-yl)acetamide] | A (a % inhibition of about 75%)
13 | O=C(Nc1ccncc1)[C@@H](c1ccccc1)N1Cc2ccccc2C1=O [Compound I-8, (R)-2-(1-oxoisoindolin-2-yl)-2-phenyl-N-(pyridin-4-yl) acetamide] | A (a % inhibition of about 75%)
14 | CN(C)CCCCNC(=O)c1ccc(-c2ccc3c(c2)C(=O)N([C@@H](C(=O)Nc2nccs2)c2ccccc2)C3)cc1 [Compound I-82, (R)-N-(4-(dimethylamino)butyl)-4-(3-oxo-2-(2-oxo-1-phenyl-2-(thiazol-2-ylamino)ethyl)isoindolin-5-yl)benzamide] | C (a % inhibition of between about 25% to about 50%)
15 | CN(C(=O)[C@@H](c1ccccc1)N1Cc2ccccc2C1=O)c1nccs1 [Compound I-58, (R)-N-methyl-2-(1-oxoisoindolin-2-yl)-2-phenyl-N-(thiazol-2-yl)acetamide] | B (a % inhibition of between about 50% to about 75%)
16 | O=C(Nc1ncc[nH]1)[C@@H](c1ccccc1)N1Cc2ccc(-c3ccc4[nH]ccc4c3)cc2C1=O [Compound I-133, (R)-2-(6-(1H-indol-5-yl)-1-oxoisoindolin-2-yl)-N-(1H-imidazol-2-yl)-2-phenylacetamide] | D (a % inhibition of between about 0% to about 25%)
17 | CCn1cc(-c2ccc3c(c2)C(=O)N([C@@H](C(=O)Nc2nccs2)c2ccccc2)C3)cn1 [Compound I-63, (R)-2-(6-(1-ethyl-1H-pyrazol-4-yl)-1-oxoisoindolin-2-yl)-2-phenyl-N-(thiazol-2-yl)acetamide] | C (a % inhibition of between about 25% to about 50%)
18 | O=C(NCCCN1CCOCC1)c1ccc(-c2ccc3c(c2)C(=O)N([C@@H](C(=O)Nc2nccs2)c2ccccc2)C3)cc1 [Compound I-84, (R)-N-(3-morpholinopropyl)-4-(3-oxo-2-(2-oxo-1-phenyl-2-(thiazol-2-ylamino)ethyl)isoindolin-5-yl)benzamide] | D (a % inhibition of between about 0% to about 25%)
19 | NC(=O)c1csc(NC(=O)[C@@H](c2ccccc2)N2Cc3ccccc3C2=O)n1 [Compound I-17, (R)-2-(2-(1-oxoisoindolin-2-yl)-2-phenylacetamido)thiazole-4-carboxamide] | A (a % inhibition of about 75%)
20 | O=C(Nc1cnoc1)[C@@H](c1ccccc1)N1Cc2ccc(-c3ccc4[nH]ccc4c3)cc2C1=O [Compound I-130, (R)-2-(6-(1H-indol-5-yl)-1-oxoisoindolin-2-yl)-N-(isoxazol-4-yl)-2-phenylacetamide] | C (a % inhibition of between about 25% to about 50%)
21 | C[C@H](C(=O)Nc1nccs1)N1Cc2ccc(-c3ccc(N4CCN(C(=O)OC(C)(C)C)CC4)cc3)cc2C1=O [Compound I-117, tert-butyl (R)-4-(4-(3-oxo-2-(1-oxo-1-(thiazol-2-ylamino)propan-2-yl)isoindolin-5-yl)phenyl)piperazine-1-carboxylate] | A (a % inhibition of about 75%)
22 | O=C(Nc1nccs1)[C@@H](c1ccccc1)N1Cc2ccc(-c3cccs3)cc2C1=O [Compound I-46, (R)-2-(1-oxo-6-(thiophen-2-yl)isoindolin-2-yl)-2-phenyl-N-(thiazol-2-yl)acetamide] | B (a % inhibition of between about 50% to about 75%)
